Measured values published in patent US9695154B2, “Heteroaryl inhibitors of sumo activating enzyme” (MILLENNIUM PHARMACEUTICALS, INC., priority 2013, dated 2017).

Target: T1, recombinant human SAE enzyme (Homo sapiens, UniProt Q9UBT2)
T1 sequence (Q9UBT2 1-640): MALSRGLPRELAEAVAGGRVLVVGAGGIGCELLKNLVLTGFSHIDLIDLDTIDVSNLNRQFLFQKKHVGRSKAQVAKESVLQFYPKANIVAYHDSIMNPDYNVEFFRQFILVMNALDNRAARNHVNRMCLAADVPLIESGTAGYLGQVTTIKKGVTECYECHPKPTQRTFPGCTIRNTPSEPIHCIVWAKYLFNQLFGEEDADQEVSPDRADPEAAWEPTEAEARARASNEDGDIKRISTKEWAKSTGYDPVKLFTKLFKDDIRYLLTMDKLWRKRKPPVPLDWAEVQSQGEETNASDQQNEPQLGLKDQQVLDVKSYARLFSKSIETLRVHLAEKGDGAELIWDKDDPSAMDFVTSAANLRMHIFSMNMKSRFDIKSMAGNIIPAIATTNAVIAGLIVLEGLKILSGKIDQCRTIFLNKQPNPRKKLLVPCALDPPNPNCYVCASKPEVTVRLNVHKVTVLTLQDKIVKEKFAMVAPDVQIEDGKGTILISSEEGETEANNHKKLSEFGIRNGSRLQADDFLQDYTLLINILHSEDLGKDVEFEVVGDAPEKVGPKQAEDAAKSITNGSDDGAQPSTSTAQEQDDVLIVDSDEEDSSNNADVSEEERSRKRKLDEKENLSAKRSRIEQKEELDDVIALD
T1 sequence (Q9UBE0 1-346 partner): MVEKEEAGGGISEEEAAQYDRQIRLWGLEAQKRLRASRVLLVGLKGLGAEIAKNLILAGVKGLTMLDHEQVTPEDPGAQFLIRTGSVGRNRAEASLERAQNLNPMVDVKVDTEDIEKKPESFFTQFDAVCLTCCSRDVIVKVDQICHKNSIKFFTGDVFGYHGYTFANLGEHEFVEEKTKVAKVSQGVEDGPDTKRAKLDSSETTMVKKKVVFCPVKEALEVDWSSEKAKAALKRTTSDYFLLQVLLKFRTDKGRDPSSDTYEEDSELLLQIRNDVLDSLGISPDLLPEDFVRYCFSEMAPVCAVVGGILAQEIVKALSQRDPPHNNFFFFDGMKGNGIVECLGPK
Test: SAE HTRF Enzyme Assay
Assay type: biochemical
Details: for IC50: class symbols A-C; for inhibition at 0.111 µM: compound concentration 0.111 μM, read-out: Percent Inhibition
Procedure, shortened: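 Measured as FRET after a 2 h antibody step: SAE (0.11 nM) thioester transfer of Sumo-Flag to Ubc9-GST, 0.5 μM ATP, 24° C for 105 min, quenched with 20 mM EDTA. Output is IC50 or percent inhibition at a single concentration.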

Row | Structure (SMILES) | IC50 [µM] | inhibition at 0.111 µM [%]
1 | NS(=O)(=O)OC[C@H]1C[C@@H](Nc2ncncc2C(=O)c2ccn(Cc3cc(F)c(F)cc3F)n2)[C@H](O)[C@@H]1O [Compound I-314, {(1R,2R,3S,4R)-2,3-dihydroxy-4-[(5-{[1-(2,4,5-trifluorobenzyl)-1H-pyrazol-3-yl]carbonyl}pyrimidin-4-yl)amino]cyclopentyl}methyl sulfamate] | < 0.01 | 97
2 | Cc1ccc(Cn2ccc(C(=O)c3cncnc3N[C@@H]3C[C@H](COS(N)(=O)=O)[C@@H](O)C3)n2)cc1F [Compound I-210, {(1R,2S,4R)-4-[(5-{[1-(3-Fluoro-4-methylbenzyl)-1H-pyrazol-3-yl]carbonyl}pyrimidin-4-yl)amino]-2-hydroxycyclopentyl}methyl sulfamate] | < 0.01 | 98
3 | NS(=O)(=O)OC[C@H]1C[C@@H](Nc2ncncc2C(=O)c2ccn(Cc3ccc(C(F)(F)F)cc3)n2)[C@H](O)[C@@H]1O [Compound I-167, [(1R,2R,3S,4R)-2,3-dihydroxy-4-{[5-({1-[4-(trifluoromethyl)benzyl]-1H-pyrazol-3-yl}carbonyl)pyrimidin-4-yl]amino}cyclopentyl]methyl sulfamate] | < 0.01 | 98
4 | COCc1cc(C(=O)c2cncnc2N[C@@H]2C[C@H](COS(N)(=O)=O)[C@@H](O)C2)nn1Cc1cccc(Br)c1 [Compound I-368, {(1R,2S,4R)-4-[(5-{[1-(3-bromobenzyl)-5-(methoxymethyl)-1H-pyrazol-3-yl]carbonyl}pyrimidin-4-yl)amino]-2-hydroxycyclopentyl}methyl sulfamate] | < 0.01 | 98
5 | NS(=O)(=O)OC[C@H]1C[C@@H](Nc2ncncc2C(=O)c2ccn(Cc3cccc(I)c3)c2)[C@@H](F)[C@@H]1O [Compound I-13, {(1R,2R,3R,4R)-3-fluoro-2-hydroxy-4-[(5-{[1-(3-iodobenzyl)-1H-pyrrol-3-yl]carbonyl}pyrimidin-4-yl)amino]cyclopentyl}methyl sulfamate] | < 0.01 | 100
6 | NS(=O)(=O)OC[C@H]1C[C@@H](Nc2ncncc2C(=O)c2ccn(Cc3ccc(Cl)c(C(F)(F)F)c3)n2)[C@H](O)[C@@H]1O [Compound I-34, [(1R,2R,3S,4R)-4-{[5-({1-[4-chloro-3-(trifluoromethyl)benzyl]-1H-pyrazol-3-yl}carbonyl)pyrimidin-4-yl]amino}-2,3-dihydroxycyclopentyl] methyl sulfamate] | < 0.01 | 99
7 | NS(=O)(=O)OC[C@H]1C[C@@H](Nc2ccncc2C(=O)c2ccn(Cc3cccc(Br)c3)n2)C[C@@H]1O [Compound I-223, {(1R,2S,4R)-4-[(3-{[1-(3-bromobenzyl)-1H-pyrazol-3-yl]carbonyl}pyridin-4-yl)amino]-2-hydroxycyclopentyl}methyl sulfamate] | < 0.01 | 99
8 | Cc1cc(C(=O)c2cncnc2N[C@@H]2C[C@H](COS(N)(=O)=O)[C@@H](O)[C@H]2O)nn1Cc1ccccc1 [Compound I-31, [(1R,2R,3S,4R)-4-({5-[(1-benzyl-5-methyl-1H-pyrazol-3-yl)carbonyl]pyrimidin-4-yl}amino)-2,3-dihydroxycyclopentyl]methyl sulfamate] | < 0.01 | 94
9 | NS(=O)(=O)OC[C@H]1C[C@@H](Nc2ncncc2C(=O)c2ccn(Cc3cccc(F)c3F)n2)C[C@@H]1O [Compound I-219, {(1R,2S,4R)-4-[(5-{[1-(2,3-difluorobenzyl)-1H-pyrazol-3-yl]carbonyl}pyrimidin-4-yl)amino]-2-hydroxycyclopentyl}methyl sulfamate] | < 0.01 | 99
10 | NS(=O)(=O)OC[C@H]1C[C@@H](Nc2ncncc2C(=O)c2ccn(Cc3cccc(Br)c3)n2)C[C@@H]1O [Compound I-11, {(1R,2S,4R)-4-[(5-{[1-(3-bromobenzyl)-1H-pyrazol-3-yl]carbonyl}pyrimidin-4-yl)amino]-2-hydroxycyclopentyl}methyl sulfamate] |  | 100
11 | NS(=O)(=O)OC[C@H]1C[C@@H](Nc2ncncc2C(=O)c2ccn(CC#Cc3ccco3)n2)C[C@@H]1O [Compound I-199, [(1R,2S,4R)-4-{[5-({1-[3-(2-furyl)prop-2-yn-1-yl]-1H-pyrazol-3-yl}carbonyl)pyrimidin-4-yl]amino}-2-hydroxycyclopentyl]methyl sulfamate] | < 0.01 | 94
12 | NS(=O)(=O)OC[C@H]1C[C@@H](Nc2ncncc2C(=O)c2ccn(Cc3ccc(Cl)s3)n2)C[C@@H]1O [Compound I-280, [(1R,2S,4R)-4-{[5-({1-[(5-chloro-2-thienyl)methyl]-1H-pyrazol-3-yl}carbonyl)pyrimidin-4-yl]amino}-2-hydroxycyclopentyl]methyl sulfamate] | < 0.01 | 99
13 | NS(=O)(=O)OC[C@H]1C[C@@H](Nc2ncncc2C(=O)c2ccn(Cc3ccc(Cl)c(Br)c3)n2)C[C@@H]1O [Compound I-179, {(1R,2S,4R)-4-[(5-{[1-(3-bromo-4-chlorobenzyl)-1H-pyrazol-3-yl]carbonyl}pyrimidin-4-yl)amino]-2-hydroxycyclopentyl}methyl sulfamate] | < 0.01 | > 99
14 | NS(=O)(=O)OC[C@H]1C[C@@H](Nc2ncncc2C(=O)c2ccn(Cc3ccc(F)c(Br)c3)n2)[C@H](O)[C@@H]1O [Compound I-290, {(1R,2R,3S,4R)-4-[(5-{[1-(3-bromo-4-fluorobenzyl)-1H-pyrazol-3-yl]carbonyl}pyrimidin-4-yl)amino]-2,3-dihydroxycyclopentyl}methyl sulfamate] | < 0.01 | 99
15 | Cc1cc(C(=O)c2cncnc2N[C@@H]2C[C@H](COS(N)(=O)=O)[C@@H](O)C2)nn1Cc1cccc(Br)c1 [Compound I-309, {(1R,2S,4R)-4-[(5-{[1-(3-Bromobenzyl)-5-methyl-1H-pyrazol-3-yl]carbonyl}pyrimidin-4-yl)amino]-2-hydroxycyclopentyl}methyl sulfamate] | < 0.01 | 100
16 | NS(=O)(=O)OC[C@H]1C[C@@H](Nc2ncncc2C(=O)c2ccn(Cc3ccccc3Cl)n2)C[C@@H]1O [Compound I-206, {(1R,2S,4R)-4-[(5-{[1-(2-chlorobenzyl)-1H-pyrazol-3-yl]carbonyl}pyrimidin-4-yl)amino]-2-hydroxycyclopentyl}methyl sulfamate] | < 0.01 | 96
17 | NS(=O)(=O)OC[C@H]1C[C@@H](Nc2ncncc2C(=O)c2ccn(Cc3ccc(OC(F)(F)F)cc3)n2)C[C@@H]1O [Compound I-276, [(1R,2S,4R)-2-hydroxy-4-{[5-({1-[4-(trifluoromethoxy)benzyl]-1H-pyrazol-3-yl}carbonyl)pyrimidin-4-yl]amino}cyclopentyl]methyl sulfamate] | 0.01 to 0.1 | 82
18 | CC(c1cccc(Br)c1)n1ccc(C(=O)c2cncnc2N[C@@H]2C[C@H](COS(N)(=O)=O)[C@@H](O)[C@@H]2F)c1 (single isomer, unassigned) [Compound I-192, [(1R,2R,3R,4R)-4-{[5-({1-[(1S)-1-(3-bromophenyl)ethyl]-1H-pyrrol-3-yl}carbonyl)pyrimidin-4-yl]amino}-3-fluoro-2-hydroxycyclopentyl]methyl sulfamate or [(1R,2R,3R,4R)-4-{[5-({1-[(1R)-1-(3-bromophenyl)ethyl]-1H-pyrrol-3-yl}carbonyl)pyrimidin-4-yl]amino}-3-fluoro-2-hydroxycyclopentyl]methyl sulfamate] | < 0.01 | 98
19 | NS(=O)(=O)OC[C@H]1C[C@@H](Nc2ncncc2C(=O)c2ccn(Cc3ccc(F)cc3F)n2)C[C@@H]1O [Compound I-62, {(1R,2S,4R)-4-[(5-{[1-(2,4-difluorobenzyl)-1H-pyrazol-3-yl]carbonyl}pyrimidin-4-yl)amino]-2-hydroxycyclopentyl}methyl sulfamate] | < 0.01 | 96
20 | NS(=O)(=O)OC[C@H]1C[C@@H](Nc2ncncc2C(=O)c2ccn(Cc3cccc(Cl)c3)n2)[C@@H](F)[C@@H]1O [Compound I-176, {(1R,2R,3R,4R)-4-[(5-{[1-(3-chlorobenzyl)-1H-pyrazol-3-yl]carbonyl}pyrimidin-4-yl)amino]-3-fluoro-2-hydroxycyclopentyl}methyl sulfamate] | < 0.01 | 98
